Reference: US9266933B2, “Polypeptides inhibiting neovascularization and uses thereof” (SHANGHAI FIRST PEOPLE'S HOSPITAL, priority 2011, dated 2016)
“Also recorded” adds a separate entry of the source.

Tests used:
mouse cornea = test: Mouse corneal stroma micropocket model of VEGF-induced pathological angiogenesis; format: in vivo, C57BL/6 mice; settings: VEGF + ZY3 low (0.5 μg/granule) and high (2 μg/granule) concentration, 5 days after operation, compared with VEGF group; **P<0.01
Description: Mice model of the corneal stroma micropocket was used and the methods were as follows:
Male C57BL/6 mice (4-5 week old) were intraperitoneally injected with 2% pentobarbital (about 0.1 ml/mouse) for anesthesia. 4% hydrochloric oxybuprocaine ophthalmic solution was locally administrated. Under the stereo microscope, OT syringe needle and 2 ml syringe needle were used to perform a blunt dissection between the layers of corneal stroma at 0.8-1 mm from corneoscleral limbus. A pouch of about 0.6×0.8 mm was formed. […] Neovascularization area were calculated as followed: Area (mm^2)=0.5*3.14*VL (mm)*CN*0.4 (mm) SPSS1L 0.1 was used for statistical analysis.

[1] = test system: chick embryo chorioallantoic membrane; test: Angiogenesis in chick embryo chorioallantoic membrane model; format: in vivo; settings: low (10 μg/piece) and high (50 μg/piece) concentration on filter paper, 2 days, compared with PBS group; **P<0.01
Description: Model of chick embryo chorioallantoic membrane was used and the methods were as follows:
Upon sterilization, the chick fertile eggs of 1-2 days old (purchased from 36 Lianhuaqing Chicken Farm of Shanghai Xinghuo Farm) were placed into a thermhygrostat (purchased from Shanghai Boxun industrial Co., ltd. SPX-250C) (T=37° C., Humidity H=60-70%) to incubate for 5 days. Every day, the eggs were overturned for one time at morning and night. Onto the filter paper (Whatman quantitative filter papers, Sigma, ashless, Grade 42, Cat No 1442-042, 42.5 mm Φ×100 circles) containing cortisone acetate (5 μg/μl, 5 μl/piece), PBS (5 μl/piece), low (2 μg/μl) or high (10 μg/μl) concentration of small peptides ZY3 (5 μl/piece) were dropped respectively. After air-dried, the filter paper was placed between the major vessels on chorioallantoic membrane of fertile eggs and the eggs were sealed. The eggs were placed in the thermhygrostat (T=37° C., Humidity H=60-70%) to incubate for another 2 days (24 hours a day) without overturning. Then the chorioallantoic membrane was thoroughly exposed and photographed (the range was within 5 mm around the filter paper). The number of 3-5 subordinate microvessels in the area within 2.5 mm around the filter paper was counted. SPSS11.0.1 was used for statistical analysis.

[2] = test system: Human Umbilical Vein Endothelial Cells (HUVECs); test: Matrigel lumen formation assay of HUVECs; format: cell-based; settings: VEGF + ZY3 in different concentrations (incl. 160 μM), 6 hours, compared with VEGF group; concentration-dependent; *P<0.05
Description: The Matrigel method was used as follows:
A 50 μl/well Matrigel (purchased from BD Co.) was added into a 96-well plate, and then the plate was incubated at 37° C. for 30 min. Upon solidification, the primary HUVECs were inoculated onto the surface of Matrigel with an inoculation concentration of 8×10^6/ml. Then the serum-free culture medium ECM as negative control, VEGF (100 ng/ml) (purchased from Sigma Co.) as positive control, VEGF (100 ng/well)+small peptide ZY3 in different concentrations as treatment groups were added in each well. The plate wad incubated at 37° C. After treating for 6 hours, photos were taken for cells in 3 randomized fields in the plate under the microscope (×200 fold.), and the sum of the maximum lumina diameter formed in the cells was calculated. Finally, SPSS11.0.1 was used for statistical analysis.

[3] = test system: Human Umbilical Vein Endothelial Cells (HUVECs); test: MTS proliferation assay of VEGF-stimulated HUVECs; format: cell-based; settings: VEGF + ZY3 in different concentrations, 24-hour incubation, compared with VEGF group; concentration-dependent; *P<0.05, **P<0.01
Description: The MTS method was used as follows:
Primary Human Umbilical Vein Endothelial Cells (HUVECs) (purchased from ScienCell Co.) were inoculated into a 96-well plate with an inoculation concentration of 2×10^4/ml. After cells had adhered to the wall, serum-free culture medium ECM was added and the cells were cultivated at 37° C. for 24 hours. Then the serum-free culture medium ECM as negative control, VEGF (100 ng/ml) (purchased from Sigma Co.) as positive control, VEGF (100 ng/well)+small peptide ZY3 in different concentrations as treatment groups were added in each well. After a 24-hour incubation, 20 μl 1 MTS solution (purchased from Promega Corporation) was added in each well. After incubation at 37° C. for 4 hours, the absorbance in each well was measured at 490 nm by using microplate reader (Bio-Rad Co.). The proliferation activity of cells was determined according to OD490. Finally, SPSS11.0.1 was used for statistical analysis.
Derived Polypeptides were prepared as follows, and the inhibition effect of each ZY3 derived polypeptides on proliferation of Human Umbilical Vein Endothelial Cells HUVECs was determined according to the methods in Example 3.

TANVTMQLLKIRSGDRPSYVELTFSQH (angiogenesis-inhibiting peptide ZY3)
corneal angiogenesis (neovascularization area on mouse cornea) (mouse cornea): significantly inhibited | angiogenesis of chick embryo chorioallantoic membrane (count of 3-5 subordinate microvessels within 2.5 mm around the filter paper) [1]: significant inhabitation effects; also recorded: significantly inhibited | lumen formation of HUVECs (sum of maximum lumina diameter) [2]: significantly inhibited | proliferation of HUVECs (OD490, MTS) [3]: significantly inhibited
